# Measurements: the CombiSolv-Exp solvation set (Vermeire and Green 2021)
# Experiment: solvent given as SMILES
# [1] = in CCCCCCCCC=CCCCCCCCC(=O)OCC(COC(=O)CCCCCCCC=CCCCCCCCC)OC(=O)CCCCCCCC=CCCCCCCCC
smiles,measurement,setting,value
Brc1cccc(Br)c1,"solvation free energy, 298 K",in O,-1.99 kcal/mol
CC1=CCC2(C)CCCC(C)(C)C23CC13 (configuration not stated),"solvation free energy, 298 K",in O,0.46 kcal/mol
Oc1c(Cl)cc(Cl)cc1Cl,"solvation free energy, 298 K",[1],-8.28 kcal/mol
same,"solvation free energy, 298 K",in O,-4.95 kcal/mol
CCCC(=O)CC(=O)CC,"solvation free energy, 298 K",in O,-4.35 kcal/mol
FC1(F)C(F)(F)C(F)(F)C1(F)F,"solvation free energy, 298 K",in O,3.43 kcal/mol
O=C(O)Cc1ccc(O)cc1,"solvation free energy, 298 K",in CCOC(C)=O,-13.6 kcal/mol
same,"solvation free energy, 298 K",in O,-13 kcal/mol
Cc1ccc(C=O)o1,"solvation free energy, 298 K",in CCCCCCCC,-4.95 kcal/mol
same,"solvation free energy, 298 K",in CCCCCCCCCC,-5.29 kcal/mol
same,"solvation free energy, 298 K",in O,-5.5 kcal/mol
CCCc1ccc(O)c(OC)c1,"solvation free energy, 298 K",in O,-5.26 kcal/mol
BrC1CCCCC1,"solvation free energy, 298 K",in O,-0.57 kcal/mol
FC(F)(Cl)C(F)(F)Cl,"solvation free energy, 298 K",in CCCCCCCC(=O)OCC(COC(=O)CCCCCCC)OC(=O)CCCCCCC,-1.63 kcal/mol
same,"solvation free energy, 298 K",in CCCCCCCCO,-1.61 kcal/mol
same,"solvation free energy, 298 K",in CN1CCCC1=O,-1.49 kcal/mol
same,"solvation free energy, 298 K",in CN(C)C=O,-1.6 kcal/mol
same,"solvation free energy, 298 K",in O,2.25 kcal/mol
COc1ccccc1O,"solvation free energy, 298 K",in O,-5.67 kcal/mol
Nc1ccccc1[N+](=O)[O-],"solvation free energy, 298 K",in CC(C)CC(C)(C)C,-7.5 kcal/mol
same,"solvation free energy, 298 K",in CCCCCC,-7.51 kcal/mol
same,"solvation free energy, 298 K",in O,-7.43 kcal/mol
O=C(O)CCCCCCc1ccccc1,"solvation free energy, 298 K",in O,-8.72 kcal/mol
CC(C)CCCCOC(=O)c1ccccc1C(=O)OCCCCC(C)C,"solvation free energy, 298 K",in O,-6.55 kcal/mol
ClC=C(Cl)Cl,"solvation free energy, 298 K",in C1COCCO1,-4.91 kcal/mol
same,"solvation free energy, 298 K",in CC(=O)N(C)C,-4.8 kcal/mol
same,"solvation free energy, 298 K",[1],-4.37 kcal/mol
same,"solvation free energy, 298 K",in CCCCCCCCCC,-3.84 kcal/mol
same,"solvation free energy, 298 K",in CCCCCCCCO,-4.09 kcal/mol
same,"solvation free energy, 298 K",in CCCCN(C=O)CCCC,-4.62 kcal/mol
same,"solvation free energy, 298 K",in CNC(C)=O,-4.35 kcal/mol
same,"solvation free energy, 298 K",in O,-0.46 kcal/mol
C#CC=C,"solvation free energy, 298 K",in C1COCCO1,-3.21 kcal/mol
same,"solvation free energy, 298 K",in CC(C)=O,-3.19 kcal/mol
same,"solvation free energy, 298 K",in CC(C)CC(C)(C)C,-2.21 kcal/mol
same,"solvation free energy, 298 K",in CN(C)C=O,-3.28 kcal/mol
same,"solvation free energy, 298 K",in COC(C)=O,-3.19 kcal/mol
same,"solvation free energy, 298 K",in Cc1ccc(C)cc1,-3.07 kcal/mol
same,"solvation free energy, 298 K",in O,0.04 kcal/mol
BrC(Br)Br,"solvation free energy, 298 K",in O,-1.96 kcal/mol
CCNc1nc(NC(C)C)nc(OC)n1,"solvation free energy, 298 K",in O,-10.2 kcal/mol
C=C(C)C1CCC2=CCCC(C)C2(C)C1 (configuration not stated),"solvation free energy, 298 K",in O,-0.15 kcal/mol
CN1CCN(C)CC1,"solvation free energy, 298 K",in O,-7.58 kcal/mol
CCCCCCCCCCCCCCCCCCCCCCCCCCCC,"solvation free energy, 298 K",in CC(=O)N(C)C,-18.9 kcal/mol
same,"solvation free energy, 298 K",in CC(C)(C)O,-16.9 kcal/mol
same,"solvation free energy, 298 K",in CCC(C)=O,-17.1 kcal/mol
same,"solvation free energy, 298 K",in CCCCCO,-17 kcal/mol
same,"solvation free energy, 298 K",in CCCCO,-16.7 kcal/mol
same,"solvation free energy, 298 K",in CCCCOC(C)=O,-17.9 kcal/mol
same,"solvation free energy, 298 K",in CCCO,-16.4 kcal/mol
same,"solvation free energy, 298 K",in CN(C)C=O,-19 kcal/mol
same,"solvation free energy, 298 K",in Cc1ccc(C)cc1,-19.3 kcal/mol
same,"solvation free energy, 298 K",in Cc1cccc(C)c1,-19.2 kcal/mol
same,"solvation free energy, 298 K",in ClCCl,-18.6 kcal/mol
same,"solvation free energy, 298 K",in O,5.92 kcal/mol
CCCCCCC=O,"solvation free energy, 298 K",in O,-2.67 kcal/mol
CCC(=O)c1c(C)[nH]n(-c2ccccc2)c1=O,"solvation free energy, 298 K",in O,-9.74 kcal/mol
c1nc[nH]n1,"solvation free energy, 298 K",in COC(C)=O,-10.3 kcal/mol
same,"solvation free energy, 298 K",in O,-11.6 kcal/mol
C#CC(C)(C)O,"solvation free energy, 298 K",in O,-5.18 kcal/mol
COC(=O)C1CCCCC1,"solvation free energy, 298 K",in O,-3.3 kcal/mol
O=C(O)c1ccc2ccccc2c1,"solvation free energy, 298 K",in C=CCCCCCCC=C,-9.58 kcal/mol
same,"solvation free energy, 298 K",in C=CCCCCCCCCCCCCCC,-9.37 kcal/mol
same,"solvation free energy, 298 K",in O,-8.54 kcal/mol
C=CCCCCCC,"solvation free energy, 298 K",in CC#N,-3.98 kcal/mol
same,"solvation free energy, 298 K",in CCC#N,-4.66 kcal/mol
same,"solvation free energy, 298 K",in CCCC#N,-4.42 kcal/mol
same,"solvation free energy, 298 K",in CCCCC(CC)COC(=O)CCCCC(=O)OCC(CC)CCCC,-4.72 kcal/mol
same,"solvation free energy, 298 K",in CCCCCCC,-5.17 kcal/mol
same,"solvation free energy, 298 K",[1],-4.65 kcal/mol
same,"solvation free energy, 298 K",in CCCCCCCCO,-4.58 kcal/mol
same,"solvation free energy, 298 K",in CCCCOC(=O)c1ccccc1C(=O)OCCCC,-4.62 kcal/mol
same,"solvation free energy, 298 K",in CCN1CCCC1=O,-4.36 kcal/mol
same,"solvation free energy, 298 K",in CCN(CC)C(C)=O,-4.5 kcal/mol
same,"solvation free energy, 298 K",in CCNC(C)=O,-4.23 kcal/mol
same,"solvation free energy, 298 K",in CCNC=O,-3.97 kcal/mol
same,"solvation free energy, 298 K",in CCOC(=O)c1ccccc1C(=O)OCC,-4.11 kcal/mol
same,"solvation free energy, 298 K",in CN1CCCC1=O,-4.02 kcal/mol
same,"solvation free energy, 298 K",in CN(C)C=O,-3.89 kcal/mol
same,"solvation free energy, 298 K",in CNC=O,-3.6 kcal/mol
same,"solvation free energy, 298 K",in CS(C)=O,-3.04 kcal/mol
same,"solvation free energy, 298 K",in N#CCCCCC#N,-3.31 kcal/mol
same,"solvation free energy, 298 K",in NC=O,-1.58 kcal/mol
same,"solvation free energy, 298 K",in NCCO,-2.07 kcal/mol
same,"solvation free energy, 298 K",in Nc1ccccc1,-3.82 kcal/mol
same,"solvation free energy, 298 K",in O,1.93 kcal/mol
same,"solvation free energy, 298 K",in O=C1CCCO1,-3.53 kcal/mol
same,"solvation free energy, 298 K",in O=CN1CCOCC1,-3.4 kcal/mol
same,"solvation free energy, 298 K",in OCCO,-1.81 kcal/mol
same,"solvation free energy, 298 K",in OCCOCCO,-2.55 kcal/mol
same,"solvation free energy, 298 K",in OCCOCCOCCO,-2.78 kcal/mol
CCc1cnccn1,"solvation free energy, 298 K",in O,-5.45 kcal/mol
